From PubChem BioAssay (NCI)
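96-well plates; 48 h exposure; 5 concentrations. Endpoints by linear interpolation between flanking doses. Not reached: highest tested concentration assigned. Abbreviation: GI50, concentration required for 50% inhibition of growth. TGI marks complete inhibition of growth.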

What was measured:
Assay in all cases: growth of human tumour cells (NCI), 48 h
786-0 renal = tested on: 786-0 renal
A498 renal = tested on: A498 renal
A549 NSCLC = tested on: A549 NSCLC
ACHN renal = tested on: ACHN renal
BT-549 breast = tested on: BT-549 breast
CAKI-1 renal = tested on: CAKI-1 renal
CCRF-CEM leukemia = tested on: CCRF-CEM leukemia
COLO 205 colon = tested on: COLO 205 colon
DU-145 prostate = tested on: DU-145 prostate
EKVX NSCLC = tested on: EKVX NSCLC
HCC-2998 colon = tested on: HCC-2998 colon
HCT-116 colon = tested on: HCT-116 colon
HCT-15 colon = tested on: HCT-15 colon
HL-60(TB) leukemia = tested on: HL-60(TB) leukemia
HOP-62 NSCLC = tested on: HOP-62 NSCLC
HOP-92 NSCLC = tested on: HOP-92 NSCLC
HS 578T breast = tested on: HS 578T breast
HT29 colon = tested on: HT29 colon
IGROV1 ovarian = tested on: IGROV1 ovarian
K-562 leukemia = tested on: K-562 leukemia
KM12 colon = tested on: KM12 colon
LOX IMVI melanoma = tested on: LOX IMVI melanoma
M14 melanoma = tested on: M14 melanoma
MALME-3M melanoma = tested on: MALME-3M melanoma
MCF7 breast = tested on: MCF7 breast
MDA-MB-231 breast = tested on: MDA-MB-231 breast
MDA-MB-435 = tested on: MDA-MB-435
MDA-MB-468 breast = tested on: MDA-MB-468 breast
MOLT-4 leukemia = tested on: MOLT-4 leukemia
NCI-H226 lung = tested on: NCI-H226 lung
NCI-H23 lung = tested on: NCI-H23 lung
NCI-H460 lung = tested on: NCI-H460 lung
NCI-H522 lung = tested on: NCI-H522 lung
NCI/ADR-RES ovarian = tested on: NCI/ADR-RES ovarian
OVCAR-3 ovarian = tested on: OVCAR-3 ovarian
OVCAR-4 ovarian = tested on: OVCAR-4 ovarian
OVCAR-5 ovarian = tested on: OVCAR-5 ovarian
OVCAR-8 ovarian = tested on: OVCAR-8 ovarian
PC-3 prostate = tested on: PC-3 prostate
RPMI-8226 leukemia = tested on: RPMI-8226 leukemia
SF-268 CNS = tested on: SF-268 CNS
SF-295 CNS = tested on: SF-295 CNS
SF-539 CNS = tested on: SF-539 CNS
SK-MEL-2 melanoma = tested on: SK-MEL-2 melanoma
SK-MEL-28 melanoma = tested on: SK-MEL-28 melanoma
SK-MEL-5 melanoma = tested on: SK-MEL-5 melanoma
SK-OV-3 ovarian = tested on: SK-OV-3 ovarian
SN12C renal = tested on: SN12C renal
SNB-19 CNS = tested on: SNB-19 CNS
SNB-75 CNS = tested on: SNB-75 CNS
SR leukemia = tested on: SR leukemia
SW-620 colon = tested on: SW-620 colon
T-47D breast = tested on: T-47D breast
TK-10 renal = tested on: TK-10 renal
U251 CNS = tested on: U251 CNS
UACC-257 melanoma = tested on: UACC-257 melanoma
UACC-62 melanoma = tested on: UACC-62 melanoma
UO-31 renal = tested on: UO-31 renal

In the case of Clc1ccc2c(NCCNC34CC5CC(CC(C5)C3)C4)ccnc2c1, the GI50 (786-0 renal) is reported as 2.41 µM, the TGI (786-0 renal) is reported as 5.57 µM and the GI50 (A498 renal) is reported as 3.09 µM. It also gave a TGI (A498 renal) of 6.1 µM, a GI50 (A549 NSCLC) of 3.19 µM and a TGI (A549 NSCLC) of 7.18 µM. The GI50 (ACHN renal) was 2.88 µM, the TGI (ACHN renal) was 5.83 µM and the GI50 (BT-549 breast) was 2.67 µM. For the same compound, the TGI (BT-549 breast) was 6.03 µM, the GI50 (CAKI-1 renal) was 2.82 µM and the TGI (CAKI-1 renal) was 5.76 µM. For the same compound, the GI50 (CCRF-CEM leukemia) was 5 µM, the TGI (CCRF-CEM leukemia) was 12.9 µM and the GI50 (COLO 205 colon) was 0.416 µM. It also gave a TGI (COLO 205 colon) of 1 µM, a GI50 (DU-145 prostate) of 3.57 µM and a TGI (DU-145 prostate) of 6.72 µM. The GI50 (EKVX NSCLC) was 3.53 µM, the TGI (EKVX NSCLC) was 7.16 µM and the GI50 (HCC-2998 colon) was 0.889 µM. The TGI (HCC-2998 colon) was 3.32 µM, the GI50 (HCT-116 colon) was 1.43 µM and the TGI (HCT-116 colon) was 4.91 µM. For the same compound, the GI50 (HCT-15 colon) was 0.763 µM, the TGI (HCT-15 colon) was 3.28 µM and the GI50 (HL-60(TB) leukemia) was 3.69 µM. It also gave a TGI (HL-60(TB) leukemia) of 8.73 µM, a GI50 (HOP-62 NSCLC) of 3.7 µM and a TGI (HOP-62 NSCLC) of 7.41 µM. It also gave a GI50 (HOP-92 NSCLC) of 0.484 µM, a TGI (HOP-92 NSCLC) of 3.17 µM and a GI50 (HS 578T breast) of 2.64 µM. For the same compound, the TGI (HS 578T breast) was 6.51 µM, the GI50 (HT29 colon) was 0.675 µM and the TGI (HT29 colon) was 2.71 µM. It also gave a GI50 (IGROV1 ovarian) of 3.37 µM, a TGI (IGROV1 ovarian) of 6.65 µM and a GI50 (K-562 leukemia) of 0.756 µM. The TGI (K-562 leukemia) was 4.57 µM, the GI50 (KM12 colon) was 2.87 µM and the TGI (KM12 colon) was 5.82 µM. It also gave a GI50 (LOX IMVI melanoma) of 1.06 µM, a TGI (LOX IMVI melanoma) of 4.07 µM and a GI50 (M14 melanoma) of 0.43 µM. The TGI (M14 melanoma) was 0.837 µM, the GI50 (MALME-3M melanoma) was 1.25 µM and the TGI (MALME-3M melanoma) was 4.24 µM. For the same compound, the GI50 (MCF7 breast) was 0.868 µM, the TGI (MCF7 breast) was 3.47 µM and the GI50 (MDA-MB-231 breast) was 2.38 µM. The TGI (MDA-MB-231 breast) was 5.19 µM, the GI50 (MDA-MB-435) was 0.566 µM and the TGI (MDA-MB-435) was 1.6 µM. The GI50 (MDA-MB-468 breast) was 0.435 µM, the TGI (MDA-MB-468 breast) was 1.21 µM and the GI50 (MOLT-4 leukemia) was 3.63 µM. It also gave a TGI (MOLT-4 leukemia) of 10.2 µM, a GI50 (NCI-H226 lung) of 3.04 µM and a TGI (NCI-H226 lung) of 6.5 µM. The GI50 (NCI-H23 lung) was 3.41 µM, the TGI (NCI-H23 lung) was 6.82 µM and the GI50 (NCI-H460 lung) was 3.31 µM. It also gave a TGI (NCI-H460 lung) of 6.61 µM, a GI50 (NCI-H522 lung) of 2.9 µM and a TGI (NCI-H522 lung) of 6.34 µM. It also gave a GI50 (NCI/ADR-RES ovarian) of 3.21 µM, a TGI (NCI/ADR-RES ovarian) of 6.42 µM and a GI50 (OVCAR-3 ovarian) of 3.11 µM. For the same compound, the TGI (OVCAR-3 ovarian) was 6.1 µM, the GI50 (OVCAR-4 ovarian) was 2.95 µM and the TGI (OVCAR-4 ovarian) was 7.8 µM. For the same compound, the GI50 (OVCAR-5 ovarian) was 2.9 µM, the TGI (OVCAR-5 ovarian) was 6.05 µM and the GI50 (OVCAR-8 ovarian) was 2.9 µM. The TGI (OVCAR-8 ovarian) was 6.16 µM, the GI50 (PC-3 prostate) was 3.1 µM and the TGI (PC-3 prostate) was 7.77 µM. For the same compound, the GI50 (RPMI-8226 leukemia) was 1.22 µM, the TGI (RPMI-8226 leukemia) was 9.55 µM and the GI50 (SF-268 CNS) was 3.03 µM. It also gave a TGI (SF-268 CNS) of 6.14 µM, a GI50 (SF-295 CNS) of 3.47 µM and a TGI (SF-295 CNS) of 6.67 µM. The GI50 (SF-539 CNS) was 0.533 µM, the TGI (SF-539 CNS) was 1.21 µM and the GI50 (SK-MEL-2 melanoma) was 3.37 µM. For the same compound, the TGI (SK-MEL-2 melanoma) was 6.62 µM, the GI50 (SK-MEL-28 melanoma) was 3.15 µM and the TGI (SK-MEL-28 melanoma) was 6.2 µM. It also gave a GI50 (SK-MEL-5 melanoma) of 3.12 µM, a TGI (SK-MEL-5 melanoma) of 6.12 µM and a GI50 (SK-OV-3 ovarian) of 4.32 µM. For the same compound, the TGI (SK-OV-3 ovarian) was 8.21 µM, the GI50 (SN12C renal) was 3.24 µM and the TGI (SN12C renal) was 6.34 µM. It also gave a GI50 (SNB-19 CNS) of 3.8 µM, a TGI (SNB-19 CNS) of 7.19 µM and a GI50 (SNB-75 CNS) of 3.15 µM. The TGI (SNB-75 CNS) was 6.97 µM, the GI50 (SR leukemia) was 0.622 µM and the TGI (SR leukemia) was 2.31 µM. The GI50 (SW-620 colon) was 2.83 µM, the TGI (SW-620 colon) was 6 µM and the GI50 (T-47D breast) was 3.33 µM. The TGI (T-47D breast) was 7.75 µM, the GI50 (TK-10 renal) was 3.71 µM and the TGI (TK-10 renal) was 7.28 µM. It also gave a GI50 (U251 CNS) of 1.32 µM, a TGI (U251 CNS) of 4.78 µM and a GI50 (UACC-257 melanoma) of 3.24 µM. The TGI (UACC-257 melanoma) was 6.62 µM, the GI50 (UACC-62 melanoma) was 3.03 µM and the TGI (UACC-62 melanoma) was 6.05 µM. It also gave a GI50 (UO-31 renal) of 2.57 µM and a TGI (UO-31 renal) of 5.38 µM.
